Data on 16 compounds can be found in US4677111A, “N-benzoyl-N'-(3-nitrophenyl) urea compounds, and antitumorous compositions containing them” (Ishihara Sangyo Kaisha Ltd., priority 1984, dated 1987).

Read-outs that look alike come from different tables or passages of the source.

The test system of data set [1] is p-388 leukemia cells. Briefly: Test Example 1 (Intraperitoneal-intraperitoneal) antitumour activity, increase life span. The class given is in vivo, BDF1 mice. Conditions: Mus musculus, P388, ip, 720 h. As for the experimental part:
To BDF1 mice, p-388 leukemia cells were intraperitoneally inoculated in an amount of 1×10^6 cells/mouse. A test drug was intraperitoneally administered twice, i.e. one day and four days after the inoculation. […] The increase life span ILS (%) of each treated group was obtained with the number of survival days of mice of the control group to which a physiological saline was administered, being evaluated as 0. The drugs were dispersions obtained by adding small amounts of surfactants (e.g. Tween-80) to the test compounds.
ILS (%)*: Increase Life Span, calculated in accordance with the following
formula: ILS (%) = MST100, where MST is the ratio of median survival time
of test and control animals.

Data set [2] relates to p-388 leukemia cells. Briefly: Test Example 2 (intraperitoneal-oral) antitumour activity, increase life span. Conditions: oral drug, days 1 and 4. The class given is in vivo, BDF1 mice. As for the experimental part: A test drug was orally administered twice i.e. one day and four days after the inoculation.
The mixture was pulverized in a wet system by a sand mill using glass beads (80% of particles having a particle size of not larger than 2 μm). Then, 5 parts by weight of xanthane gum (2% solution) was added thereto to obtain an aqueous suspension.

The next data set is described as follows: Acute toxicity, LD50. Conditions: mouse, in vivo, ip; ddY mice, intraperitoneal, Formulation Example 4. As for the experimental part:
To ddY mice (10 animals), a drug containing one of Compound Nos. 1-4, 7, 9 and 10 of the present invention formulated in accordance with Formulation Example 4 was intraperitoneally administered, and the LD50 value was measured and found to be at least 100 mg/kg in each case, and the LD50 value of Compound No. 6 of the invention found to be at least 50 mg/kg.
The Compound No. 2 of the present invention was preliminarily pulverized by a centrifugal pulverizer. On the other hand, 5 parts by weight of polyoxyethylene (60) hardened castor oil, 0.2 part by weight of silicone and 0.3 part by weight of a polyoxyethylene-polyoxypropylene block polymer were added to 79.5 parts by weight of a physiological saline to obtain an aqueous solution, to which 10 parts by weight of the above pulverized Compound No. 2 of the present invention was added. The mixture was pulverized in a wet system by a sand mill using glass beads (80% of particles having a particle size of not larger than 2 μm). Then, 5 parts by weight of xanthane gum (2% solution) was added thereto to obtain an aqueous suspension.

Setting [3] is: read-out: ILS (increase life span).
[4] abbreviates: i.p. drug, days 1 and 4, 100 mg/kg/day, read-out: ILS (increase life span).

Broadly, the ILS is the gain in survival time of treated over control animals, in per cent. As for `O=c1[nH]cc(F)c(=O)[nH]1` [5-Fluorouracil, reference compound], the ILS at 60 mg/kg/day in the data set with p-388 leukemia cells [1] (setting [3]) is 85%.
With `O=C(NC(=O)c1ccccc1Cl)Nc1ccc(Oc2ncc(Cl)cn2)c(Cl)c1` [Comparative Compound No. 1, N--(2chlorobenzoyl)-N'--[3chloro-4-(5-chloro-2-pyrimidinyloxy)phenyl]urea], the increase in lifespan (ILS) at 100 mg/kg/day in the data set with p-388 leukemia cells [1] (setting [4]) stood at 33%. The “ILS (increase life span)” value in the data set with p-388 leukemia cells [2] (800 mg/kg/day) worked out at 11%; with p-388 leukemia cells [2] (1600 mg/kg/day) it was 24%.
As to `O=C(NC(=O)c1ccccc1Br)Nc1ccc(Oc2ncc(I)cn2)c(Cl)c1` [Comparative Compound No. 2, N--(2bromobenzoyl)-N'--[3chloro-4-(5-iodo-2-pyrimidinyloxy)phenyl]urea], the ILS at 100 mg/kg/day in the data set with p-388 leukemia cells [1] (setting [4]) was determined as 65%. For the same compound, the “ILS (increase life span)” value in the data set on p-388 leukemia cells [2] (400 mg/kg/day) is 4%; with p-388 leukemia cells [2] (800 mg/kg/day) it was 2%.
The compound `O=C(NC(=O)c1ccccc1Cl)Nc1ccc(Oc2ccc(Cl)nn2)c(Cl)c1` [Comparative Compound No. 3, N--(2chlorobenzoyl)-N'--[3chloro-4-(6-chloro-3-pyridazinyloxy)phenyl]urea, reference compound] gave an ILS at 200 mg/kg/day with p-388 leukemia cells [1] (i.p. drug, days 1 and 4) of 24%.
Take `O=C(NC(=O)c1ccccc1Cl)Nc1ccc(Oc2ccc(Br)nn2)c(Cl)c1` [Comparative Compound No. 4, N--(2chlorobenzoyl)-N'--[4(6-bromo-3-pyridazinyloxy)-3-chlorophenyl]urea, reference compound]: in the data set on p-388 leukemia cells [1] (setting [4]), the increase in life span (ILS) at 100 mg/kg/day came to 36%.
On the same count and under the same terms, the result for `O=C(NC(=O)c1ccccc1[N+](=O)[O-])Nc1ccc(Oc2ccc(C(F)(F)F)cn2)c(Cl)c1` [Comparative Compound No. 5, reference compound] reads 70%.
In the data set on p-388 leukemia cells [1] (i.p. drug, days 1 and 4), `O=C(NC(=O)c1ccccc1Cl)Nc1ccc(Oc2ccc(Br)cn2)c(Cl)c1` [Comparative Compound No. 6, N--(2chlorobenzoyl)-N'--[4(5-bromo-2-pyridyl-oxy)-3-chlorophenyl]urea, reference compound] gave an increase in lifespan (ILS) at 200 mg/kg/day of 50%.
One may read the LD50 as the dose at which mortality reaches 50%. Read a low LD50 as a more toxic substance. In the case of `O=C(NC(=O)c1ccccc1[N+](=O)[O-])Nc1ccc(Oc2ncc(I)cn2)c([N+](=O)[O-])c1` [Compound No. 1, N-(2-nitrobenzoyl)-N'-[4-(5-iodo-2-pyrimidinyloxy)-3-nitrophenyl]urea], the increase in lifespan (ILS) at 50 mg/kg/day with p-388 leukemia cells [1] (setting [3]) stood at 111%. In “Acute toxicity, LD50”, the LD50 is at least 100 mg/kg.
For the compound `O=C(NC(=O)c1ccccc1[N+](=O)[O-])Nc1ccc(Oc2ncc(Cl)cn2)c([N+](=O)[O-])c1` [Compound No. 2, N-(2-nitrobenzoyl)-N'-[4-(5-chloro-2-pyrimidinyloxy)-3-nitrophenyl]urea], the ILS at 50 mg/kg/day in the data set on p-388 leukemia cells [1] (setting [3]) is 134%. Further, the entries for the “ILS (increase life span)” value in the data set with p-388 leukemia cells [2] (200 mg/kg/day) and in the data set with p-388 leukemia cells [2] (400 mg/kg/day) were 90% and 108%, respectively. This compound showed a median lethal dose (LD50) in the data set “Acute toxicity, LD50” of at least 100 mg/kg.
As for `O=C(NC(=O)c1ccccc1[N+](=O)[O-])Nc1ccc(Oc2ncc(Br)cn2)c([N+](=O)[O-])c1` [Compound No. 3, N-(2-nitrobenzoyl)-N'-[4-(5-bromo-2-pyrimidinyloxy)-3-nitrophenyl]urea], the ILS at 50 mg/kg/day in the data set on p-388 leukemia cells [1] (setting [3]) stood at 120%. The “ILS (increase life span)” value with p-388 leukemia cells [2] (200 mg/kg/day) is 39%; in the data set with p-388 leukemia cells [2] (400 mg/kg/day), 46%. The 50% lethal dose (LD50) in the data set “Acute toxicity, LD50” is at least 100 mg/kg.
On to `O=C(NC(=O)c1ccccc1Cl)Nc1ccc(Oc2ncc(Cl)cn2)c([N+](=O)[O-])c1` [Compound No. 4, N-(2-chlorobenzoyl)-N'-[4-(5-chloro-2-pyrimidinyloxy)-3-nitrophenyl]urea], for which, in the data set on p-388 leukemia cells [1] (setting [3]), the increase in life span (ILS) at 100 mg/kg/day stood at 102%. The same compound registered an LD50 in “Acute toxicity, LD50” of at least 100 mg/kg.
On to `O=C(NC(=O)c1ccc(Cl)cc1[N+](=O)[O-])Nc1ccc(Oc2ncc(Cl)cn2)c([N+](=O)[O-])c1` [Compound No. 6, N-(4-chloro-2-nitrobenzoyl)-N'-[4-(5-chloro-2-pyrimidinyloxy)-3-nitrophenyl]urea], for which, in the data set with p-388 leukemia cells [1] (setting [3]), the ILS at 25 mg/kg/day stood at 165%. The same compound returned an LD50 in the data set “Acute toxicity, LD50” of at least 50 mg/kg.
Consider `O=C(NC(=O)c1ccccc1[N+](=O)[O-])Nc1ccc(Oc2ccc(Br)nn2)c([N+](=O)[O-])c1` [Compound No. 7, N-(2-nitrobenzoyl)-N'-[4-(6-bromo-3-pyridazinyloxy)-3-nitrophenyl]urea], for which, in the data set with p-388 leukemia cells [1] (setting [3]), the ILS at 100 mg/kg/day was 152%. Besides, the 50% lethal dose (LD50) in “Acute toxicity, LD50” was at least 100 mg/kg.
Turning to `O=C(NC(=O)c1ccccc1[N+](=O)[O-])Nc1ccc(Oc2ccc(C(F)(F)F)cn2)c([N+](=O)[O-])c1` [Compound No. 9, N-(2-nitrobenzoyl)-N'-[4-(5-trifluoromethyl-2-pyridyloxy)-3-nitrophenyl]urea], the ILS at 100 mg/kg/day in the data set on p-388 leukemia cells [1] (setting [3]) was found to be 119%. Moreover, the LD50 in the data set “Acute toxicity, LD50” is at least 100 mg/kg.
In the case of `O=C(NC(=O)c1ccccc1[N+](=O)[O-])Nc1ccc(Oc2ccc(Cl)cn2)c([N+](=O)[O-])c1` [Compound No. 10, N-(2-nitrobenzoyl)-N'-[4-(5-chloro-2-pyridyloxy)-3nitrophenyl]urea], the increase in lifespan (ILS) at 100 mg/kg/day with p-388 leukemia cells [1] (setting [3]) was determined as 153%. Further, the LD50 in “Acute toxicity, LD50” was at least 100 mg/kg.
For `O=C(NC(=O)c1ccccc1[N+](=O)[O-])Nc1ccc(Oc2ncc(I)cn2)c(Cl)c1` [compound 7, N--(2nitrobenzoyl)-N'--[3chloro-4-(5-iodo-2-pyrimidinyloxy)phenyl]urea], the “ILS (increase life span)” value in the data set on p-388 leukemia cells [2] (1600 mg/kg/day) was 41%.
